Where “and” joins values, the source holds several entries; their conditions need not be identical. Equal values may be shown once.
Test: Phase I study: plasma pharmacokinetics of orally administered Compound 1
Type: in vivo, human
Details: for AUC(0-inf) / AUC(0-t) / Cmax / half-life / Tmax: human, plasma, oral
Source text: The study was designed as a multicenter, open-label Phase 1 study of orally administered Compound 1 in participants with R/R AML or participants with R/R intermediate- to high-risk MDS. […] Additional cohorts for participants with R/R intermediate- to high-risk MDS following hypomethylating agents or other AML cohorts may be added at a later time.
Similar dosing may be used in the dose expansion part of the study. […] Additional intensive PK testing is collected for any participants undergoing intra-patient dose escalation.
At the conclusion of the 900 mg QD cohort, subjects were enrolled in cohorts for BID dosing, starting with the 300 mg BID dosing.
Subjects were treated with Compound 1 QD as described in Example 2.
Subjects were treated with Compound 1 QD or BID dosing as described in Example 2 and blood samples were taken from subjects and analyzed as described in Example 3. Tables 16 and 17 show pharmacokinetic analyses for QD dosing for 100 mg, 175 mg, 275 mg, 350 mg, 400 mg and 900 mg cohorts and BID dosing for 300 mg and 350 mg cohorts. Abbreviations in Table 16 and Table 17: AR=Day 4 AUC0-24/Day 1 AUC0-24, NR=not reported; NA=not available. […] FIG. 9 and FIG. 10 show AUC for day 1 and day 4 of dosing with doses between 350-900 mg QD compared with 350 mg BID.

[1] = 300 mg, 300 mg BID, Day 1, 1 subject
[2] = 300 mg, 300 mg BID, Day 4, 1 subject
[3] = 350 mg, 350 mg BID, Day 1, Mean
[4] = 350 mg, 350 mg BID, Day 4, Mean

SMILES: Cc1cc2c(C(N)=O)cccc2n1-c1nc2c(c(NCc3ccccc3)n1)CCCN2 [Compound 1, 1-(4-(benzylamino)-5,6,7,8-tetrahydropyrido[2,3-d]pyrimidin-2-yl)-2-methyl-1H-indole-4-carboxamide]
- exposure level increases between the doses (25 mg to 450 mg QD): generally proportional and linear
- Cmax/Dose (100 mg QD, Day 1, Mean): 0.00372 µM/mg
- exposure of BID dosing compared with QD dosing (350 mg BID vs 600, 750 and 900 mg QD, Day 1): higher level of exposure
- Cmax/Dose (450 mg QD, Day 1, Mean): 0.00481 µM/mg
- AUC0-inf/Dose (450 mg QD, Day 4, Mean): 0.0853 µM·h/mg
- AR (Cohort 1 (25 mg QD), Day 4): 0.914
- plasma exposure compared with CB-5083 (Compound 1 25 mg QD vs CB-5083 40 mg QD): significantly higher plasma exposure
- accumulation (between days 1 and 4): No accumulation
- plasma exposure compared with CB-5083 (human subjects): significantly higher plasma exposure than CB-5083
- AUC(0-inf) (100 mg, 100 mg QD, Day 1, Mean): 1780 ng·h/mL and 4.31 µM·h
- AUC(0-t) (100 mg, 100 mg QD, Day 1, Mean): 1420 ng·h/mL and 3.43 µM·h
- Cmax (100 mg, 100 mg QD, Day 1, Mean): 154 ng/mL and 372 nM
- half-life (100 mg, 100 mg QD, Day 1, Mean): 6.87 h
- AUC(0-inf) (100 mg, 100 mg QD, Day 4, Mean): 3020 ng·h/mL and 7.32 µM·h
- AUC(0-t) (100 mg, 100 mg QD, Day 4, Mean): 2750 ng·h/mL and 6.66 µM·h
- Cmax (100 mg, 100 mg QD, Day 4, Mean): 356 ng/mL and 861 nM
- Tmax (100 mg, 100 mg QD, Day 4, Mean): 2.67 h
- half-life (100 mg, 100 mg QD, Day 4, Mean): 7.84 h
- AUC(0-inf) (175 mg, 175 mg QD, Day 1, Mean): 5260 ng·h/mL and 12.7 µM·h
- AUC(0-t) (175 mg, 175 mg QD, Day 1, Mean): 4380 ng·h/mL and 10.6 µM·h
- Cmax (175 mg, 175 mg QD, Day 1, Mean): 636 ng/mL
- Tmax (175 mg, 175 mg QD, Day 1, Mean): 3.33 h
- half-life (175 mg, 175 mg QD, Day 1, Mean): 11.4 h
- AUC(0-inf) (175 mg, 175 mg QD, Day 4, Mean): 2950 ng·h/mL and 7.13 µM·h
- AUC(0-t) (175 mg, 175 mg QD, Day 4, Mean): 8760 ng·h/mL and 21.2 µM·h
- Cmax (175 mg, 175 mg QD, Day 4, Mean): 490 ng/mL and 1.19 µM
- Tmax (175 mg, 175 mg QD, Day 4, Mean): 13.5 h
- half-life (175 mg, 175 mg QD, Day 4, Mean): 6.01 h
- AUC(0-inf) (275 mg, 275 mg QD, Day 1, Mean): 4660 ng·h/mL and 11.3 µM·h
- AUC(0-t) (275 mg, 275 mg QD, Day 1, Mean): 4140 ng·h/mL and 10 µM·h
- Cmax (275 mg, 275 mg QD, Day 1, Mean): 679 ng/mL and 1.65 µM
- Tmax (275 mg, 275 mg QD, Day 1, Mean): 2.57 h
- half-life (275 mg, 275 mg QD, Day 1, Mean): 5.08 h
- AUC(0-inf) (275 mg, 275 mg QD, Day 4, Mean): 9660 ng·h/mL and 23.4 µM·h
- AUC(0-t) (275 mg, 275 mg QD, Day 4, Mean): 9230 ng·h/mL and 22.4 µM·h
- Cmax (275 mg, 275 mg QD, Day 4, Mean): 827 ng/mL and 2 µM
- Tmax (275 mg, 275 mg QD, Day 4, Mean): 3.6 h
- half-life (275 mg, 275 mg QD, Day 4, Mean): 8.9 h
- AUC(0-t) [1]: 12200 ng·h/mL and 29.6 µM·h
- Cmax [1]: 965 ng/mL and 2.34 µM
- Tmax [1]: 12 h
- AUC(0-inf) [2]: 27700 ng·h/mL and 67 µM·h
- AUC(0-t) [2]: 27400 ng·h/mL and 66.4 µM·h
- Cmax [2]: 1920 ng/mL and 4.65 µM
- Tmax [2]: 3 h
- AUC(0-inf) [3]: 29600 ng·h/mL and 71.8 µM·h
- AUC(0-t) [3]: 14600 ng·h/mL and 35.3 µM·h
- Cmax [3]: 1340 ng/mL and 3.25 µM
- Tmax [3]: 7.63 h
- AUC(0-inf) [4]: 31800 ng·h/mL and 77 µM·h
- AUC(0-t) [4]: 23400 ng·h/mL and 56.7 µM·h
- Cmax [4]: 2020 ng/mL and 4.89 µM
- Tmax [4]: 3.25 h
- AUC(0-inf) (350 mg, 350 mg QD, Day 1, Mean): 5330 ng·h/mL and 12.9 µM·h
- AUC(0-t) (350 mg, 350 mg QD, Day 1, Mean): 5200 ng·h/mL and 12.6 µM·h
